Read-outs that look alike come from different tables or passages of the source.
What was measured:
P300 = P300 (Homo sapiens, UniProt Q09472); experiment: Immunoblotting of P300 protein levels in LNCaP or 22RV1 cells; format: cell-based; parameters: LNCaP or 22RV1 cells that express CBP/P300 proteins were treated with GNE-781 or the bivalent compounds; endogenous in cells; host or cells: LNCaP (clone FGC) or 22RV1 cells; conditions: read-out: Degradation (10 nM)
Outline: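 P300/CBP levels quantified by chemiluminescent immunoblot band densitometry, normalized against tubulin or vinculin loading controls. Lysates came from LNCaP or 22RV1 cells exposed to compounds or DMSO vehicle for indicated times.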

LNCaP cells = experiment: LNCaP cell viability assay (CellTiter-Glo); format: cell-based; conditions: for IC50: Homo sapiens, 72 h, LNCaP prostate cancer cell viability inhibition, 3 days
Outline: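 Three-day treatment of LNCaP cells (5000 per well) across a 12-point, 3-fold dilution series starting at 10 μM. ATP luminescence (CellTiter-Glo) relative to untreated controls gave dose-response curves fitted nonlinearly for IC50.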

[1] = percentage of inhibition of p300 at 10 nM (Table 3)
[2] = percentage of inhibition of p300 at 10 nM (Table 2)

Sequence of P300 (Q09472 whole entry): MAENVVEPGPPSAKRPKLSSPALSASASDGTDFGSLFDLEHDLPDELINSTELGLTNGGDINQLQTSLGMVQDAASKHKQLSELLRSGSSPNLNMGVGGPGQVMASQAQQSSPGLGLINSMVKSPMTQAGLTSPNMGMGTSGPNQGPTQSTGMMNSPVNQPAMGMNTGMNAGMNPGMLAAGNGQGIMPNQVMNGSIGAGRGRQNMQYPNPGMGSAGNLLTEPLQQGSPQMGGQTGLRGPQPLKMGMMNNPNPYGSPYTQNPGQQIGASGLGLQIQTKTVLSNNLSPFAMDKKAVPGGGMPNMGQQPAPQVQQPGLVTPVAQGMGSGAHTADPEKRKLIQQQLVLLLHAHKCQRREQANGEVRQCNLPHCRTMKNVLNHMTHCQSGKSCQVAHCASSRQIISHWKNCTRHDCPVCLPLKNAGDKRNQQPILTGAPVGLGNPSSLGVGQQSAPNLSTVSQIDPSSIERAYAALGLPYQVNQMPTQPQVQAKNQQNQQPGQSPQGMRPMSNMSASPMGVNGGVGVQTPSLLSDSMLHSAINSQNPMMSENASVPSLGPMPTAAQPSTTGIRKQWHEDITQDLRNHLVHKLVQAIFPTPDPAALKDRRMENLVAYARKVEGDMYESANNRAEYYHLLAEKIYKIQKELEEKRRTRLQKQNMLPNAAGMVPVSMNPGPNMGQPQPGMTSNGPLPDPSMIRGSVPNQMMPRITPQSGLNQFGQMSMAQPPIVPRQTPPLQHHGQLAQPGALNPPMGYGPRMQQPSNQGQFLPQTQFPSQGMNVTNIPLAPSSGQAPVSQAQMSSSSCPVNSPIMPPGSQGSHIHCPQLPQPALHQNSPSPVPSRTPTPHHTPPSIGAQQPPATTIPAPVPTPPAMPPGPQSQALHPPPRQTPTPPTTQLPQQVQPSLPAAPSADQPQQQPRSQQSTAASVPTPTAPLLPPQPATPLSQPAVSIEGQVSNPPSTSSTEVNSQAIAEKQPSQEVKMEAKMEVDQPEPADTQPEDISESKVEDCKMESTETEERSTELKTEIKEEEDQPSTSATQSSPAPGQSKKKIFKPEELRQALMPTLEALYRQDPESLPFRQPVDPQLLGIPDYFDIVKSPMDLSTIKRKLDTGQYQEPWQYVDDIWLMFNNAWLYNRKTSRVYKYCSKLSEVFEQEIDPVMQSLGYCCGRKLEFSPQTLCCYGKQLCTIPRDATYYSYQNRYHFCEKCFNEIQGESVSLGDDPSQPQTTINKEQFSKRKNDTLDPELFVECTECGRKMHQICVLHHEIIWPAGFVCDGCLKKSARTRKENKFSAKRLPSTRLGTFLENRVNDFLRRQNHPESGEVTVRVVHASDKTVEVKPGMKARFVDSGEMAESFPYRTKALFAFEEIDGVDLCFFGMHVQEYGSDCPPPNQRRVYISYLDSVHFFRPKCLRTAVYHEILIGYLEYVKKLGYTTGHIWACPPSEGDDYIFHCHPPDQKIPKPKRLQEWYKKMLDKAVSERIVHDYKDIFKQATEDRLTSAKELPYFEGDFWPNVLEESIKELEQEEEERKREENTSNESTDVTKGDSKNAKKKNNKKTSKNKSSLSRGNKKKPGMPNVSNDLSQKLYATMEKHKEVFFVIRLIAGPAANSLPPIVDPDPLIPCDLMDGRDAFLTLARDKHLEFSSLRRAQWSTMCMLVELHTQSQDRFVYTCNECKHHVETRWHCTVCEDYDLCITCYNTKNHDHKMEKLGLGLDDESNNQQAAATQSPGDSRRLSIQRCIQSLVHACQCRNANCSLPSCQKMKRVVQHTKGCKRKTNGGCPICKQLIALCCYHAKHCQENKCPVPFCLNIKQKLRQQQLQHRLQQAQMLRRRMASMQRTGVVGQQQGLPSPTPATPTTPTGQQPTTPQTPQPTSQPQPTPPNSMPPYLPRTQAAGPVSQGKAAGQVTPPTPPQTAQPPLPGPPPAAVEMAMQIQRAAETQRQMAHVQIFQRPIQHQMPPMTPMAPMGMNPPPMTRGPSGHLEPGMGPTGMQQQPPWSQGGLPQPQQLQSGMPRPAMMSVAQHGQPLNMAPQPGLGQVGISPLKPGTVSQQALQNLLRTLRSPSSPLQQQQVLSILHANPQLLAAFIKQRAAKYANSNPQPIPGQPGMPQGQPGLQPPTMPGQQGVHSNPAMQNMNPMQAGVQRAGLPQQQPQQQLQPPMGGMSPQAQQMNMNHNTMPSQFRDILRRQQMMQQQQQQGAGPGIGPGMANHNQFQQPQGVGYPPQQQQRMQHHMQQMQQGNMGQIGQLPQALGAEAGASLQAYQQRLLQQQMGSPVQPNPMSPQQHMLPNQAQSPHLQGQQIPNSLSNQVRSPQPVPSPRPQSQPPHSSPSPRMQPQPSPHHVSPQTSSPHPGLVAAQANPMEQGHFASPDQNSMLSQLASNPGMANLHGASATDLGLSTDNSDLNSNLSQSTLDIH

## CC(=O)N1CCc2c(c(N3CCCc4cc(-c5cnn(C)c5)c(C(F)F)cc43)nn2C2CCN(C(=O)CCCCCCNc3cccc4nc(C)n(C5CCC(=O)NC5=O)c(=O)c34)CC2)C1 (stereo not drawn) [P-152, 3-(5-((7-(4-(5-Acetyl-3-(7-(difluoromethyl)-6-(1-methyl-1H-pyrazol-4-yl)-3,4-dihydroquinolin-1(2H)-yl)-4,5,6,7-tetrahydro-1H-pyrazolo[4,3-c]pyridin-1-yl)piperidin-1-yl)-7-oxoheptyl)amino)-2-methyl-4-oxoquinazolin-3(4H)-yl)piperidine-2,6-dione]
P300; [1]
  inhibition at 0.01 µM: < 20%
LNCaP cells; CellTiter-Glo (Table 3)
  IC50: 169 nM

## CNC(=O)N1CCc2c(c(N3CCCc4cc(-c5cnn(C)c5)c(C(F)F)cc43)nn2C2CCN(C(=O)CCNc3ccc4c(c3)C(=O)N(C3CCC(=O)NC3=O)C4=O)CC2)C1 (stereo not drawn) [P-002, 3-(7-(Difluoromethyl)-6-(1-methyl-1H-pyrazol-4-yl)-3,4-dihydroquinolin-1(2H)-yl)-1-(1-(3-((2-(2,6-dioxopiperidin-3-yl)-1,3-dioxoisoindolin-5-yl)amino)propanoyl)piperidin-4-yl)-N-methyl-1,4,6,7-tetrahydro-5H-pyrazolo[4,3-c]pyridine-5-carboxamide]
P300; [2]
  inhibition at 0.01 µM: 50 to 80%
LNCaP cells; CellTiter-Glo (Table 2)
  IC50: 42.1 nM
LNCaP cells; from 10 μM, 12-point 3-fold serial dilution, 3 days (FIG. 4)
  viability of LNCaP cells: dose-dependently suppressed viability

## CNC(=O)N1CCc2c(c(N3CCCc4cc(-c5cnn(CC(=O)NCCCCCC(=O)N[C@H](C(=O)N6C[C@H](O)C[C@H]6C(=O)NCc6ccc(-c7scnc7C)cc6)C(C)(C)C)c5)c(C(F)F)cc43)nn2C2CCOCC2)C1 [P-047, 3-(7-(Difluoromethyl)-6-(1-(2-((6-(((S)-1-((2S,4R)-4-hydroxy-2-((4-(4-methylthiazol-5-yl)benzyl)carbamoyl)pyrrolidin-1-yl)-3,3-dimethyl-1-oxobutan-2-yl)amino)-6-oxohexyl)amino)-2-oxoethyl)-1H-pyrazol-4-yl)-3,4-dihydroquinolin-1(2H)-yl)-N-methyl-1-(tetrahydro-2H-pyran-4-yl)-1,4,6,7-tetrahydro-5H-pyrazolo[4,3-c]pyridine-5-carboxamide]
P300; [2]
  inhibition at 0.01 µM: < 20%
LNCaP cells; CellTiter-Glo (Table 2)
  IC50: 2560 nM

## CNC(=O)N1CCc2c(c(N3CCCc4cc(-c5cnn(CC(=O)NCCCCCCCC(=O)N[C@H](C(=O)N6C[C@H](O)C[C@H]6C(=O)NCc6ccc(-c7scnc7C)cc6)C(C)(C)C)c5)c(C(F)F)cc43)nn2C2CCOCC2)C1 [P-048, 3-(7-(Difluoromethyl)-6-(1-(2-((8-(((S)-1-((2S,4R)-4-hydroxy-2-((4-(4-methylthiazol-5-yl)benzyl)carbamoyl)pyrrolidin-1-yl)-3,3-dimethyl-1-oxobutan-2-yl)amino)-8-oxooctyl)amino)-2-oxoethyl)-1H-pyrazol-4-yl)-3,4-dihydroquinolin-1(2H)-yl)-N-methyl-1-(tetrahydro-2H-pyran-4-yl)-1,4,6,7-tetrahydro-5H-pyrazolo[4,3-c]pyridine-5-carboxamide]
P300; [2]
  inhibition at 0.01 µM: < 20%
LNCaP cells; CellTiter-Glo (Table 2)
  IC50: 471 nM

## CC(=O)N1CCc2c(c(N3CCCc4cc(-c5cnn(C)c5)c(C(F)F)cc43)nn2C2CCN(C(=O)CN3CCC(COc4cccc5c4C(=O)N(C4CCC(=O)NC4=O)C5=O)CC3)CC2)C1 (stereo not drawn) [P-168, 4-((1-(2-(4-(5-Acetyl-3-(7-(difluoromethyl)-6-(1-methyl-1H-pyrazol-4-yl)-3,4-dihydroquinolin-1(2H)-yl)-4,5,6,7-tetrahydro-1H-pyrazolo[4,3-c]pyridin-1-yl)piperidin-1-yl)-2-oxoethyl)piperidin-4-yl)methoxy)-2-(2,6-dioxopiperidin-3-yl)isoindoline-1,3-dione]
P300; [1]
  inhibition at 0.01 µM: < 20%
LNCaP cells; CellTiter-Glo (Table 3)
  IC50: 156 nM

## CNC(=O)N1CCc2c(c(N3CCCc4cc(-c5cnn(C)c5)c(C(F)F)cc43)nn2C2CCN(C(=O)COCCOCCOCC(=O)N[C@H](C(=O)N3C[C@H](O)C[C@H]3C(=O)NCc3ccc(-c4scnc4C)cc3)C(C)(C)C)CC2)C1 [P-068, 3-(7-(Difluoromethyl)-6-(1-methyl-1H-pyrazol-4-yl)-3,4-dihydroquinolin-1(2H)-yl)-1-(1-((S)-13-((2S,4R)-4-hydroxy-2-((4-(4-methylthiazol-5-yl)benzyl)carbamoyl)pyrrolidine-1-carbonyl)-14,14-dimethyl-11-oxo-3,6,9-trioxa-12-azapentadecanoyl)piperidin-4-yl)-N-methyl-1,4,6,7-tetrahydro-5H-pyrazolo[4,3-c]pyridine-5-carboxamide]
P300; [1]
  inhibition at 0.01 µM: < 20%
LNCaP cells; CellTiter-Glo (Table 3)
  IC50: 30.8 nM

## CC(=O)N1CCc2c(c(N3CCCc4cc(-c5cnn(C)c5)c(C(F)F)cc43)nn2C2CCN(C(=O)CCCCCCc3cccc4c3C(=O)N(C3CCC(=O)NC3=O)C4=O)CC2)C1 (stereo not drawn) [P-118, 4-(7-(4-(5-Acetyl-3-(7-(difluoromethyl)-6-(1-methyl-1H-pyrazol-4-yl)-3,4-dihydroquinolin-1(2H)-yl)-4,5,6,7-tetrahydro-1H-pyrazolo[4,3-c]pyridin-1-yl)piperidin-1-yl)-7-oxoheptyl)-2-(2,6-dioxopiperidin-3-yl)isoindoline-1,3-dione]
P300; [1]
  inhibition at 0.01 µM: 20 to 50%
LNCaP cells; CellTiter-Glo (Table 3)
  IC50: 17.8 nM

## CNC(=O)N1CCc2c(c(N3CCCc4cc(-c5cnn(CC(=O)NCCOCCOCCOCCNc6ccc7c(c6)C(=O)N(C6CCC(=O)NC6=O)C7=O)c5)c(C(F)F)cc43)nn2C2CCOCC2)C1 (stereo not drawn) [P-030, 3-(7-(Difluoromethyl)-6-(1-(14-((2-(2,6-dioxopiperidin-3-yl)-1,3-dioxoisoindolin-5-yl)amino)-2-oxo-6,9,12-trioxa-3-azatetradecyl)-1H-pyrazol-4-yl)-3,4-dihydroquinolin-1(2H)-yl)-N-methyl-1-(tetrahydro-2H-pyran-4-yl)-1,4,6,7-tetrahydro-5H-pyrazolo[4,3-c]pyridine-5-carboxamide]
P300; [2]
  inhibition at 0.01 µM: < 20%
LNCaP cells; CellTiter-Glo (Table 2)
  IC50: 669 nM

## CNC(=O)N1CCc2c(c(N3CCCc4cc(-c5cnn(CC(=O)NCCCCCCCCC(=O)N[C@H](C(=O)N6C[C@H](O)C[C@H]6C(=O)NCc6ccc(-c7scnc7C)cc6)C(C)(C)C)c5)c(C(F)F)cc43)nn2C2CCOCC2)C1 [P-081, 3-(7-(Difluoromethyl)-6-(1-(2-((9-(((S)-1-((2S,4R)-4-hydroxy-2-((4-(4-methylthiazol-5-yl)benzyl)carbamoyl)pyrrolidin-1-yl)-3,3-dimethyl-1-oxobutan-2-yl)amino)-9-oxononyl)amino)-2-oxoethyl)-1H-pyrazol-4-yl)-3,4-dihydroquinolin-1(2H)-yl)-N-methyl-1-(tetrahydro-2H-pyran-4-yl)-1,4,6,7-tetrahydro-5H-pyrazolo[4,3-c]pyridine-5-carboxamide]
P300; [1]
  inhibition at 0.01 µM: < 20%
LNCaP cells; CellTiter-Glo (Table 3)
  IC50: 469 nM

## CC(=O)N1CCc2c(c(N3CCCc4cc(-c5cnn(C)c5)c(C(F)F)cc43)nn2C2CCN(C(=O)CCCCCCCCn3c(=O)n(C4CCC(=O)NC4=O)c4ccccc43)CC2)C1 (stereo not drawn) [P-163, 3-(3-(9-(4-(5-acetyl-3-(7-(difluoromethyl)-6-(1-methyl-1H-pyrazol-4-yl)-3,4-dihydroquinolin-1(2H)-yl)-4,5,6,7-tetrahydro-1H-pyrazolo[4,3-c]pyridin-1-yl)piperidin-1-yl)-9-oxononyl)-2-oxo-2,3-dihydro-1H-benzo[d]imidazol-1-yl)piperidine-2,6-dione]
P300
  inhibition at 0.01 µM: > 80%
LNCaP cells; CellTiter-Glo (Table 3)
  IC50: 0.9 nM
